For assay [1], the target named is T1, Neuronal acetylcholine receptor; alpha4/beta2 (Homo sapiens, UniProt P17787+P43681). The assay is described as follows: Displacement of [3H]epibatidine from alpha-4-beta-2 nAChR. Format: protein-complex assay. Background: Displacement assays read how much labelled ligand stays bound in the presence of the test substance.
In assay [2] the test system is Mus musculus. The experiment in a line: Antinociceptive effect in mouse at 10 mg/kg by tail flick test. It counts as functional. Background: Hot-plate and tail-flick tests time the reaction to a heat stimulus.
For assay [3], the system named is Mus musculus. The assay is described as follows: Antinociceptive effect in mouse at 10 mg/kg by hot plate test. Format: functional.
Assay [4] has as its system Mus musculus. The assay is described as follows: Effect on hypothermia in mouse assessed as change in body temperature at 10 mg/kg. Format: functional.
Assay [5] concerns the target Neuronal acetylcholine receptor subunit alpha-7 (Homo sapiens) (UniProt P36544). The experiment in a line: Displacement of [125I]iodoMLA from alpha-7 nAChR at 50 nM.
For assay [6], the species on record is Mus musculus. The assay is described as follows: Antinociceptive effect in mouse by tail flick test. It counts as functional.
The species entered for assay [7] is Mus musculus. The experiment in a line: Antinociceptive effect in mouse by hot plate test. Format: functional.
Assay [8] is filed under the species Mus musculus. The assay is described as follows: Effect on hypothermia in mouse assessed as change in body temperature. Format: functional.
Assay [9] concerns Mus musculus. The experiment in a line: Inhibition of nicotine-induced antinociceptive effect in sc dosed mouse by tail flick test. It counts as functional.
Assay [10] relates to Mus musculus. The experiment in a line: Inhibition of nicotine-induced hypothermia in mouse assessed as change in body temperature at 0.5 ug/kg, sc. Format: functional. Further details: scale not given: the % may be the effect or the level left.
In assay [11] the test system is Mus musculus. The experiment in a line: Inhibition of nicotine-induced antinociceptive effect in mouse at 0.5 ug/kg, sc by hot plate test. It counts as functional.
Assay [12] has as its target T1, Neuronal acetylcholine receptor; alpha4/beta2. The experiment in a line: Displacement of [3H]epibatidine from alpha-4-beta-2 nAChR at 31.6 uM. It counts as protein-complex assay.
In assay [13] the test system is Mus musculus. The experiment in a line: Inhibition of nicotine-induced antinociceptive effect in mouse at 15000 ug/kg, sc by hot plate test. It counts as functional.
In assay [14] the test system is Mus musculus. The experiment in a line: Inhibition of nicotine-induced hypothermia in mouse assessed as change in body temperature at 15000 ug/kg, sc. It counts as functional. Further details: scale not given: the % may be the effect or the level left.
For assay [15], the system named is Mus musculus. The assay is described as follows: Inhibition of nicotine-induced antinociceptive effect in sc dosed mouse by hot plate test. Format: functional.
Assay [16] concerns Mus musculus. The assay is described as follows: Inhibition of nicotine-induced hypothermia in mouse assessed as change in body temperature at 5000 ug/kg, sc. It counts as functional. Set-up: scale not given: the % may be the effect or the level left.

T1 sequence (P17787 whole entry): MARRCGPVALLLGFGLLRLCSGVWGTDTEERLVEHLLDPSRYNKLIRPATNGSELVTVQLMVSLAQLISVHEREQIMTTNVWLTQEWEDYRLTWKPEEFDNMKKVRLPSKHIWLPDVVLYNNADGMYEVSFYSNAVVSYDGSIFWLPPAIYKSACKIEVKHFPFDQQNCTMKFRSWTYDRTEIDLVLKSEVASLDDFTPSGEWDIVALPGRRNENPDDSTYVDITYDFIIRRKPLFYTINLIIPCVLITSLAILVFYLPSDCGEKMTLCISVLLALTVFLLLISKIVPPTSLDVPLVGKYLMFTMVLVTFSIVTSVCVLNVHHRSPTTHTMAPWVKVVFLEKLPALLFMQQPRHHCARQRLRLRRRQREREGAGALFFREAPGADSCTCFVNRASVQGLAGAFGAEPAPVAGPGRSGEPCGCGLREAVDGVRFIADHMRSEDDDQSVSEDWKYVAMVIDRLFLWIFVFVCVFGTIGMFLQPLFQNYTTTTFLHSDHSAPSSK
T1 sequence (P43681 whole entry): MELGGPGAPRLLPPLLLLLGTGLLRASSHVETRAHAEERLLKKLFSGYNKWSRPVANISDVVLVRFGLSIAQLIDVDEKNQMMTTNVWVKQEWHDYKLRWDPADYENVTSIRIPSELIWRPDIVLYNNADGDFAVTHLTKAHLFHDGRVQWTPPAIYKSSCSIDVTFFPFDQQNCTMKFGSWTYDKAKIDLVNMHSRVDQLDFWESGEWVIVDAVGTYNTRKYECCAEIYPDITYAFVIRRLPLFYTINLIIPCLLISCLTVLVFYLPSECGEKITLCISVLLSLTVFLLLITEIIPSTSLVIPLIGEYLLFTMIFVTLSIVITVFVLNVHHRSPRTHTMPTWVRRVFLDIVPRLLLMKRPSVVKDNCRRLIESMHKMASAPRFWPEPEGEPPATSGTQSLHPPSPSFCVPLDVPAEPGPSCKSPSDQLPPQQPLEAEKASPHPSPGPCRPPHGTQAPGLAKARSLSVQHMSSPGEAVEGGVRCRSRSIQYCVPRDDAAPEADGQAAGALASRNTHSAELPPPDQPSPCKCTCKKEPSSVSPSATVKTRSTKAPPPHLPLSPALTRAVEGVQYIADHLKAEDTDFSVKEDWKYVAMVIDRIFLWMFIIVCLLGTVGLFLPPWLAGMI
Sequence of Neuronal acetylcholine receptor subunit alpha-7 (Homo sapiens) (P36544 whole entry): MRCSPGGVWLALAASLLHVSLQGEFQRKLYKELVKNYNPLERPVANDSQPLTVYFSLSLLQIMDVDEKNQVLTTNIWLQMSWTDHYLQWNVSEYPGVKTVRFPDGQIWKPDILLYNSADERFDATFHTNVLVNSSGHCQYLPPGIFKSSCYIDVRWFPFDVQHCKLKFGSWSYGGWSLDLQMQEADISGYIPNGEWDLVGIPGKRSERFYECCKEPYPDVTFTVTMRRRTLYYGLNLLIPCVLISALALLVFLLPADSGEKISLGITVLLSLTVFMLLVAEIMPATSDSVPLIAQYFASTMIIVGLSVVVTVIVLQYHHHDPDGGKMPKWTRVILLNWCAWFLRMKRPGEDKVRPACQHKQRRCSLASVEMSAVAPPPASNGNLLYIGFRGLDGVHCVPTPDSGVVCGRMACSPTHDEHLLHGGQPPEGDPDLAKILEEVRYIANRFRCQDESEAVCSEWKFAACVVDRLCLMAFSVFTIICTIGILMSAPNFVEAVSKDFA

By Ki is commonly meant a dissociation constant, usually derived from enzyme kinetics or from competition with a known ligand. With `Nc1ccc2c(n1)CN1C3CCC1C2C3` (stereo not drawn), in assay [1], the inhibition constant Ki amounted to 7370 nM. In addition, the Activity is listed as 4% with Mus musculus [2], 10% in the assay with Mus musculus [3] and 0% with Mus musculus [4].
Molecule `Clc1ccc(C2CC3NC2c2ccccc23)cn1` (stereo not drawn) returned a Ki in [1] of 65.2 nM. Also, the Activity in assay [5] is 0%.
As to `Fc1ncc(C2CC3NC2c2ccccc23)cc1-c1ccccc1` (stereo not drawn), the affinity in [1], expressed as Ki, was 128 nM. Moreover, the Activity in assay [5] is 0%.
The ED50 is the dose that gives a 50% effect, or the effect in half of the subjects. By inhibition in vivo is commonly meant the share of the control response that was lost under treatment. `CN1C2CCC1C(c1ccc(Cl)nc1)C2` (stereo not drawn) had an inhibitory constant (Ki) in [1] of 0.038 nM. The 50% effective dose (ED50) was determined as 4.4 µg/kg in the assay filed under Mus musculus [6], 3 µg/kg in the assay listed under Mus musculus [7] and 3 µg/kg in the assay filed under Mus musculus [8]. In the assay with Mus musculus [9], this molecule yielded an AD50 of 0.048 µg/kg. Moreover, the Activity in the assay on Mus musculus [10] came to 0%. The same molecule returned an inhibition in vivo at 0.0005 mg/kg with Mus musculus [11] of 23%.
For the molecule `C1=CC2NC1c1ccncc12` (stereo not drawn), the results for the Activity in assay [12] and in [5] were below 15% and 0%, respectively.
In assay [1], `Cc1nc(Cl)ccc1C1CC2CCC1N2` (stereo not drawn) came in with a Ki of 256 nM. The same molecule came in with an AD50 in the assay with Mus musculus [9] of 9000 µg/kg. Besides, the Activity in the assay with Mus musculus [2] was 1%; with Mus musculus [3], 14%; with Mus musculus [4], 0%; in the assay on Mus musculus [14], 0%. In addition, in the assay with Mus musculus [13], the inhibition in vivo at 15 mg/kg was found to be 10%.
On to `Clc1ccc2c(n1)CN1C3CCC1C2C3` (stereo not drawn), for which the Activity in the assay on Mus musculus [2] came to 3%; in the assay with Mus musculus [3], 17%; in the assay on Mus musculus [4], 0%.
Turning to `c1cnc2c(c1)C1CCC2N1` (stereo not drawn), the Activity in assay [12] is below 15%; in assay [5], 0%.
Turning to `Nc1cc2c(cn1)C1CC3CCC1N3C2` (stereo not drawn), the Ki in assay [1] is 12400 nM. For the same molecule, the Activity in the assay with Mus musculus [2] is 2%; in the assay on Mus musculus [3], 16%; with Mus musculus [4], 0%.
Regarding `Cc1cc(Cl)ncc1C1CC2CCC1N2` (stereo not drawn), the AD50 with Mus musculus [9] came to 400 µg/kg; in the assay with Mus musculus [15], 1200 µg/kg. Also, the Activity stood at 0% with Mus musculus [16], 4% with Mus musculus [2], 20% with Mus musculus [3] and 0% with Mus musculus [4].
Regarding `c1cc2c(cn1)C1CCC2N1` (stereo not drawn), the Activity in assay [12] is below 15%; in assay [5] it was 0%.
As to `Clc1ccc([C@@H]2C[C@H]3CC[C@@H]2N3)cn1` [(+)-EPIBATIDINE], the ED50 in the assay listed under Mus musculus [6] stood at 6 µg/kg; in the assay listed under Mus musculus [7], 4 µg/kg; in the assay listed under Mus musculus [8], 4 µg/kg.
`Clc1cc2c(cn1)C1CC3CCC1N3C2` (stereo not drawn): the Ki in [1] worked out at 3330 nM. Further, the Activity in the assay with Mus musculus [2] was 2%; with Mus musculus [3], 18%; with Mus musculus [4], 0%.

The values are drawn from ChEMBL document CHEMBL1138324, “Synthesis and nicotinic acetylcholine receptor binding properties of bridged and fused ring analogues of epibatidine” (J Med Chem, 2007).
